According to patent US20200188388A1, “METHODS AND COMPOSITIONS FOR PO[…] DRUGS AND REDUCING THEIR SIDE EFFECTS” (RVX THERAPEUTICS LTD., priority 2016, published 2020):

Experiments:
Wistar rats [1] = test: Rotenone model: hyperkinetic side effect in open field test (days 10 and 18); format: in vivo, rat; settings: locomotive activity in OF test increased more than 50% vs first day
Protocol: Anti-parkinsonian effect of therapy in rats with rotenone-induced PD was estimated according to elimination of extrapyramidal disorders (catalepsy) and oligokinesia (rapid decreased amplitude and velocity of repeated movements) in the “open field” test. The neuro-protective effect of therapy was evaluated by the elimination of ataxia limb dystonia and mortality in rats with rotenone-induced PSP. Hyperkinetic side action (hyper-locomotion) was evaluated by increased horizontal and vertical activity in the open field at the 10th and 18th day of the experiment, calculated in % compared to the first day of the experiment.
(§1) Ataxia and limb dystonia registration was performed twice daily, 30 minutes before administration of rotenone and 180 minutes after administration of rotenone. For each experimental group on a daily basis, throughout the whole period of observation number of rats with severe ataxia and limb dystonia (++−+++) and mortality in % of the total number of rats in group was determined. The neuro-protective effect of therapy (effects on rate of ataxia, limb dystonia and lethality) in rats with PSP was determined at days 12 and 19 of the experiment as reducing the number of rats with severe ataxia limb dystonia and mortality in % compared to control. Side hyperkinetic effects were evaluated in the “open field” test. In this test the locomotive activity in rats is determined. […] Registration of horizontal and vertical locomotive activity in OF assay was performed on the 10th and 18th day of the experiment, within 40 minutes after administration of the substance and 5 minutes before administration of rotenone. Side hyperkinetic effects was evaluated by the number of rats with a significant (at least 50% compared with the first day of the experiment) increase in horizontal and vertical activity (hyperkinesia) as a % of the total number of rats in group.
Anti-parkinsonian effect of therapy in rats with rotenone-induced parkinsonism was estimated according to elimination of extrapyramidal disorders (catalepsy) and oligokinesia in the “open field” test. The neuro-protective effect of therapy was evaluated by the elimination of ataxia and mortality in rats with rotenone-induced PSP. Hyperkinetic side action (hyper-locomotion) was evaluated by increased horizontal and vertical activity in the open field at the 10th and 18th day of the experiment, calculated in % compared to the first day of the experiment.
The neuro-protective effect in the experimental groups of rats with rotenone-induced PSP was evaluated due the elimination of ataxia and mortality caused by neurotoxic action of rotenone. Ataxia is typical incoordination neurotoxic effect of rotenone manifested in uncoordinated movements and hyper-locomotion, replaced by hypokinesia and stereotypes, and in severe cases a complete violation of antigravity reflexes, falling on its side and akinesia. Assessment of the severity of ataxia in scores was performed using the following scale: (+) uncoordinated movement, hyperkinesia; (++) significant incoordination, hypokinesia, stereotypes, falling on its side; (+++) complete violation of antigravity reflexes, akinesia. Ataxia registration was performed twice daily, 30 minutes before administration of rotenone and 180 minutes after administration of rotenone. For each experimental group on a daily basis, throughout the whole period of observation number of rats with severe ataxia (++−+++) and mortality in % of the total number of rats in group was determined. The neuro-protective effect of therapy (effects on rate of ataxia and lethality) in rats with PSP was determined at days 12 and 19 of the experiment as reducing the number of rats with severe ataxia and mortality in % compared to control. Side hyperkinetic effects were evaluated in the “open field” test. In this test the locomotive activity in rats is determined. […]

Wistar rats [2] = test: Rotenone-induced PSP: severe ataxia, limb dystonia and lethality; format: in vivo, rat; settings: for Severe ataxia sustained dystonic postures and lethality (% of group): ataxia and limb dystonia ++-+++; for [lethality] (% of group): value in brackets
Protocol: The neuro-protective effect in the experimental groups of rats with rotenone-induced PSP was evaluated due the elimination of ataxia, limb dystonia and mortality caused by cerebellar neurotoxic action of rotenone (J. Neurochem., 2005, Vol. 95(4):930-9).
Ataxia and limb dystonia is typical incoordination neurotoxic effect of rotenone manifested in uncoordinated movements and hyper-locomotion, replaced by hypokinesia and stereotypes, and in severe cases a complete violation of antigravity reflexes, falling on its side dystonic posture and akinesia. Assessment of the severity of ataxia and limb dystonia in scores was performed using the following scale: (+) uncoordinated movement, hyperkinesia; (++) significant incoordination, hypokinesia, stereotypes, falling on its side; frequent spontaneous dystonic postures (+++) complete violation of antigravity reflexes, akinesia, sustained dystonic posture (J. Neurosci., 2014, 27; 34(35):11723-32)
as §1
The neuro-protective effect in the experimental groups of rats with rotenone-induced PSP was evaluated due the elimination of ataxia and mortality caused by neurotoxic action of rotenone. Ataxia is typical incoordination neurotoxic effect of rotenone manifested in uncoordinated movements and hyper-locomotion, replaced by hypokinesia and stereotypes, and in severe cases a complete violation of antigravity reflexes, falling on its side and akinesia. Assessment of the severity of ataxia in scores was performed using the following scale: (+) uncoordinated movement, hyperkinesia; (++) significant incoordination, hypokinesia, stereotypes, falling on its side; (+++) complete violation of antigravity reflexes, akinesia. Ataxia registration was performed twice daily, 30 minutes before administration of rotenone and 180 minutes after administration of rotenone. For each experimental group on a daily basis, throughout the whole period of observation number of rats with severe ataxia (++−+++) and mortality in % of the total number of rats in group was determined. The neuro-protective effect of therapy (effects on rate of ataxia and lethality) in rats with PSP was determined at days 12 and 19 of the experiment as reducing the number of rats with severe ataxia and mortality in % compared to control. Side hyperkinetic effects were evaluated in the “open field” test. In this test the locomotive activity in rats is determined. […] Registration of horizontal and vertical locomotive activity in OF assay was performed on the 10th and 18th day of the experiment, within 40 minutes after administration of the substance and 5 minutes before administration of rotenone.

| SMILES | Hyperkmesia (% of group) (Wistar rats [1]; Day 10, levodopa 10 mg/kg oral) | Hyperkmesia (% of group) (Wistar rats [1]; Day 10, levodopa 20 mg/kg oral) | Hyperkmesia (% of group) (Wistar rats [1]; Day 18, levodopa 10 mg/kg oral) | Hyperkmesia (% of group) (Wistar rats [1]; Day 18, levodopa 20 mg/kg oral) | Severe ataxia sustained dystonic postures and lethality (% of group) (Wistar rats [2]; Day 12, levodopa 10 mg/kg oral) | [lethality] (% of group) (Wistar rats [2]; Day 12, levodopa 10 mg/kg oral) | Severe ataxia sustained dystonic postures and lethality (% of group) (Wistar rats [2]; Day 12, levodopa 20 mg/kg oral) | [lethality] (% of group) (Wistar rats [2]; Day 12, levodopa 20 mg/kg oral) | Severe ataxia sustained dystonic postures and lethality (% of group) (Wistar rats [2]; Day 19, levodopa 10 mg/kg oral) | [lethality] (% of group) (Wistar rats [2]; Day 19, levodopa 10 mg/kg oral) | Severe ataxia sustained dystonic postures and lethality (% of group) (Wistar rats [2]; Day 19, levodopa 20 mg/kg oral) | [lethality] (% of group) (Wistar rats [2]; Day 19, levodopa 20 mg/kg oral) | Hyperkmesia (% of group) (Wistar rats [1]; Day 10, memantine 5 mg/kg oral) | Hyperkmesia (% of group) (Wistar rats [1]; Day 18, memantine 5 mg/kg oral) | Severe ataxia sustained dystonic postures and lethality (% of group) (Wistar rats [2]; Day 12, memantine 5 mg/kg oral) | [lethality] (% of group) (Wistar rats [2]; Day 12, memantine 5 mg/kg oral) | Severe ataxia sustained dystonic postures and lethality (% of group) (Wistar rats [2]; Day 19, memantine 5 mg/kg oral) | [lethality] (% of group) (Wistar rats [2]; Day 19, memantine 5 mg/kg oral) |
| --- | --- | --- | --- | --- | --- | --- | --- | --- | --- | --- | --- | --- | --- | --- | --- | --- | --- | --- |
| N[C@@H](Cc1ccc(O)c(O)c1)C(=O)O [Levodopa, L-3,4-dihydroxyphenylalanine] | 0 % of group | 88 % of group | 0 % of group | 75 % of group | 14 % of group | 0 % of group | 0[0] % of group | 0[0] % of group | 42 % of group | 14 % of group | 24 % of group | 0 % of group | – | – | – | – | – | – |
| CC12CC3CC(C)(C1)CC(N)(C3)C2 [Memantine, memantine] | – | – | – | – | – | – | – | – | – | – | – | – | 40 % of group | 60 % of group | 0 % of group | 17 % of group | 17[17] % of group | 17[17] % of group |
